Measurements from the supplement of paper PMC11208160.

Experiment: recombinant barcode read abundance after kanamycin selection (control-corrected) (log10(CPM+1)); higher = more efficient recombination; sequences stand for … in AGTGCAGAGAAAATCGGCCAGTTTTCTCTGCCTGCAGTCCGCATGCCGT…AGATTTATGCAGCGGACTGCCTTTCTCCCAAAGTGATAAACCGGACAGTATCATGGACCGGTTTTCCCGGTAATCCGTATTTGCAAGGTTGGTTTCACT; site = the 11-nt target
In short: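 A vector carrying a T7-inducible recombinase and the last 73 bp of the bridge RNA received, by Gibson cloning, oligos encoding a promoter, target, barcode and the first 104 bridge RNA bases under J23119. The pooled constructs entered E. coli together with a donor plasmid by electroporation. Selection used chloramphenicol/ampicillin/kanamycin with 0.1 mM IPTG, with chloramphenicol/ampicillin LB agar as the control, each in two replicates. Recombination efficiency is the averaged, control-corrected counts-per-million of barcodes at recombinant junctions, reported as log10(CPM+1).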
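Note: IS621 recombinase and bridge RNA in Escherichia coli cells.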

Sequence	recombinant barcode read abundance (log10)
CTGCAGTCTTGGGTTCTAACCTGTTGCCA (site CTGCAGTCTTG)	0.18
CTGCAGTCTTGGGTTCTAACCTGTTGCCA (site TGCATAGCTCT)	0.126
CTGCTCCCTTGGGTTCTAACCTGTTGCGG (site CTGATCCCTCC)	0.124
CTGCTCCCTTGGGTTCTAACCTGTTGCGG (site CTGCTCCCTCC)	0.36
CTGCTCCCTTGGGTTCTAACCTGTTGCGG (site CTGGTCCCTCC)	0.306
CTGCTCCCTTGGGTTCTAACCTGTTGCGG (site CTGTTCCCTCC)	0.0581
CTGGAGACTTGGGTTCTAACCTGTTGCTT (site AGAACTCCTTC)	0.0253
CTGGAGACTTGGGTTCTAACCTGTTGCTT (site CTGGAGACTAA)	1.93
CTGGCCACTTGGGTTCTAACCTGTTGCCT (site CAGGCCACTAG)	0.115
CTGGCCACTTGGGTTCTAACCTGTTGCCT (site CCGGCCACTAG)	0.0832
CTGGCCACTTGGGTTCTAACCTGTTGCCT (site CGGGCCACTAG)	0.0825
CTGGCCACTTGGGTTCTAACCTGTTGCCT (site CTGGCCACTAG)	0.766
CTGGCGTCTTGGGTTCTAACCTGTTGCCT (site CTGGAGTCTAG)	0.263
CTGGCGTCTTGGGTTCTAACCTGTTGCCT (site CTGGCGTCTAG)	1.1
CTGGCGTCTTGGGTTCTAACCTGTTGCCT (site CTGGGGTCTAG)	0.0321
CTGGCGTCTTGGGTTCTAACCTGTTGCCT (site CTGGTGTCTAG)	0.0782
CTGGGAACTTGGGTTCTAACCTGTTGCAG (site CTCGGAACTAT)	0.149
CTGGGAACTTGGGTTCTAACCTGTTGCAG (site CTGGGAACTCT)	0.836
CTGGGGTCTTGGGTTCTAACCTGTTGCCT (site CTGGAGTCTAG)	0.858
CTGGGGTCTTGGGTTCTAACCTGTTGCCT (site CTGGCGTCTAG)	0.36
CTGGGGTCTTGGGTTCTAACCTGTTGCCT (site CTGGGGTCTAG)	2.45
CTGGGGTCTTGGGTTCTAACCTGTTGCCT (site CTGGTGTCTAG)	0.173

Sequence	recombinant barcode read abundance (log10)
CTGGTGTCTTGGGTTCTAACCTGTTGCCA (site CTGATGTCTTG)	0.0384
CTGGTGTCTTGGGTTCTAACCTGTTGCCA (site CTGCTGTCTTG)	0.0405
CTGGTGTCTTGGGTTCTAACCTGTTGCCA (site CTGGTGTCTTG)	1.12
CTGGTGTCTTGGGTTCTAACCTGTTGCCA (site CTGTTGTCTTG)	0.434
CTGTACTCTTGGGTTCTAACCTGTTGCCT (site CTGCACTCTTG)	0.126
CTGTACTCTTGGGTTCTAACCTGTTGCCT (site CTGTACTCTAG)	1.3
CTGTGAGCTTGGGTTCTAACCTGTTGCAG (site AACAATACTAG)	0.107
CTGTGAGCTTGGGTTCTAACCTGTTGCAG (site CTGTGAGCTCT)	1.47
CTGTGCACTTGGGTTCTAACCTGTTGCCG (site ATGTGCACTCT)	0.053
CTGTGCACTTGGGTTCTAACCTGTTGCCG (site CTGTGCACTCG)	0.197
CTGTGTCCTTGGGTTCTAACCTGTTGCGG (site CTGTGTCCTCC)	1.84
CTGTGTCCTTGGGTTCTAACCTGTTGCGG (site TCAGCCTCTAG)	0.214
CTTAACACTTGGGTTCTAACCTGTTGCCG (site CTTAACACTCG)	0.683
CTTAACACTTGGGTTCTAACCTGTTGCCG (site TCATGACCTAT)	0.0383
CTTACGACTTGGGTTCTAACCTGTTGCCT (site CTTACGACTAG)	0.695
CTTACGACTTGGGTTCTAACCTGTTGCCT (site GTTACAACTAG)	0.355
CTTACTACTTGGGTTCTAACCTGTTGCCA (site CTTACTACTTG)	0.0598
CTTACTACTTGGGTTCTAACCTGTTGCCA (site TCCGGCGCTCC)	0.0182
CTTACTGCTTGGGTTCTAACCTGTTGCCT (site CTTACAGCTAG)	0.775
CTTACTGCTTGGGTTCTAACCTGTTGCCT (site CTTACCGCTAG)	0.291
CTTACTGCTTGGGTTCTAACCTGTTGCCT (site CTTACGGCTAG)	0.295
CTTACTGCTTGGGTTCTAACCTGTTGCCT (site CTTACTGCTAG)	0.183

Sequence	recombinant barcode read abundance (log10)
CTTAGGGCTTGGGTTCTAACCTGTTGCCT (site CTTAGGGCTAG)	0.419
CTTAGGGCTTGGGTTCTAACCTGTTGCCT (site CTTTGTGCTAG)	0.012
CTTAGGGCTTGGGTTCTAACCTGTTGCGG (site CTAAGGGCTCC)	2.14
CTTAGGGCTTGGGTTCTAACCTGTTGCGG (site CTTAGGGCTCC)	3.02
CTTCAAGCTTGGGTTCTAACCTGTTGCCT (site CTACAAGCTAG)	1.17
CTTCAAGCTTGGGTTCTAACCTGTTGCCT (site CTCCAAGCTAG)	0.257
CTTCAAGCTTGGGTTCTAACCTGTTGCCT (site CTGCAAGCTAG)	0.197
CTTCAAGCTTGGGTTCTAACCTGTTGCCT (site CTTCAAGCTAG)	0.983
CTTCGAACTTGGGTTCTAACCTGTTGCAT (site ACATACCCTCA)	0.609
CTTCGAACTTGGGTTCTAACCTGTTGCAT (site CTTCGAACTAT)	0.407
CTTCGACCTTGGGTTCTAACCTGTTGCAT (site CTTCGACCTAT)	2.04
CTTCGACCTTGGGTTCTAACCTGTTGCAT (site CTTGGACCTCT)	0.0729
CTTCGAGCTTGGGTTCTAACCTGTTGCAG (site CTTCGAGCTCA)	0.172
CTTCGAGCTTGGGTTCTAACCTGTTGCAG (site CTTCGAGCTCC)	0.288
CTTCGAGCTTGGGTTCTAACCTGTTGCAG (site CTTCGAGCTCG)	0.168
CTTCGAGCTTGGGTTCTAACCTGTTGCAG (site CTTCGAGCTCT)	1.35
CTTCGCCCTTGGGTTCTAACCTGTTGCTT (site ACAGTGGCTCC)	0.0481
CTTCGCCCTTGGGTTCTAACCTGTTGCTT (site CTTCGCCCTAA)	0.109
CTTCGGACTTGGGTTCTAACCTGTTGCAA (site CTTCGGACTTT)	1.62
CTTCGGACTTGGGTTCTAACCTGTTGCAA (site CTTCGGGCTTT)	0.223
CTTCGGGCTTGGGTTCTAACCTGTTGCAG (site CATCGGGCTCT)	1.25
CTTCGGGCTTGGGTTCTAACCTGTTGCAG (site CCTCGGGCTCT)	1.3

Sequence	recombinant barcode read abundance (log10)
CTTCGGGCTTGGGTTCTAACCTGTTGCAG (site CGTCGGGCTCT)	0.0132
CTTCGGGCTTGGGTTCTAACCTGTTGCAG (site CTTCGGGCTCT)	1.96
CTTCGTCCTTGGGTTCTAACCTGTTGCAT (site CTTCGTCCTAA)	0.0066
CTTCGTCCTTGGGTTCTAACCTGTTGCAT (site CTTCGTCCTAC)	0.133
CTTCGTCCTTGGGTTCTAACCTGTTGCAT (site CTTCGTCCTAG)	0.139
CTTCGTCCTTGGGTTCTAACCTGTTGCAT (site CTTCGTCCTAT)	0.658
CTTGAATCTTGGGTTCTAACCTGTTGCCT (site CTTAAATCTAG)	0.117
CTTGAATCTTGGGTTCTAACCTGTTGCCT (site CTTCAATCTAG)	0.0867
CTTGAATCTTGGGTTCTAACCTGTTGCCT (site CTTGAATCTAG)	0.379
CTTGAATCTTGGGTTCTAACCTGTTGCCT (site CTTTAATCTAG)	0.337
CTTGAGACTTGGGTTCTAACCTGTTGCCT (site CTTCAGGCTAG)	0.256
CTTGAGACTTGGGTTCTAACCTGTTGCCT (site CTTGAGACTAG)	2.02
CTTGGACCTTGGGTTCTAACCTGTTGCAG (site CTTCGACCTAT)	0.00985
CTTGGACCTTGGGTTCTAACCTGTTGCAG (site CTTGGACCTCT)	2.55
CTTGGACCTTGGGTTCTAACCTGTTGCCT (site CTTGGAACTAG)	0.222
CTTGGACCTTGGGTTCTAACCTGTTGCCT (site CTTGGACCTAG)	1.74
CTTGGACCTTGGGTTCTAACCTGTTGCCT (site CTTGGAGCTAG)	0.0408
CTTGGACCTTGGGTTCTAACCTGTTGCCT (site CTTGGATCTAG)	0.113
CTTGGTTCTTGGGTTCTAACCTGTTGCCT (site CTTGGGTCTAG)	0.108
CTTGGTTCTTGGGTTCTAACCTGTTGCCT (site CTTGGTTCTAG)	0.33
